What was measured:
HFF+hTERT cells = test: Immunofluorescence and telomere FISH (TIF) assay; type: cell-based, human; conditions: for effect on 6-thio-dG-induced TIFs: 10 μM of ATM or 50 nM ATR specific inhibitor 2 hours prior to and with 3 μM 6-thio-dG for 48 hours
Description: Immunofluorescence and telomere FISH assay. Cells were fixed with 4% paraformaldehyde (PFA) for 15 minutes. Cells were then washed, permeabilized with 0.5% Triton-X-100 in PBS, blocked with 5% donkey serum and 0.3% Triton X-100 in TBS and incubated with primary antibodies against γH2A.X (1:500, rabbit), or cleaved caspase-3 (1:400, rabbit) (Cell Signaling); and/or TRF2 (1:200) (Mouse; NOVUS), as applicable, for overnight followed by TBST wash (×3) next day. Corresponding secondary antibodies were added (Alexa-Fluor 488- or 594-conjugated donkey anti-rabbit, or anti-mouse (1:500) (Jackson ImmunoResearch) for 1 hour and washed with TBS (×3) before mounting. For telomere-FISH, fixed and permeabilized cells were dehydrated with a graded ethanol concentration series, air-dried and covered with hybridization solution (70% formamide, 0.5% Blocking Reagent (Roche Diagnostics) diluted in 100 mM maleic acid and 150 mM sodium chloride, and 10 mM Tris (pH 7.5)) with 300 ng/mL PNA(CCCTAA)3-Cy3 (SEQ ID NO: 1) (Biosynthesis, USA), and denatured for 6 minutes at 84° C. followed by hybridization for at least two hours at room temperature. Cells were washed three times with 70% formamide and 10 mM Tris (pH 7.5) and three times with TBS. Finally, they were embedded with mounting media with DAPI (Vector Laboratories H1200).

telomerase = test: Telomerase activity assay (TRAP) in treated HFF+hTERT cells; type: cell-based, human; conditions: IMT 2 μM
Description: Telomerase activity assay. Telomerase activity was assayed using the TRAPeze Telomerase Detection Kit (Millipore). Cell extracts were prepared according to the manufacturer's protocol. 50-100 ng of total protein was used to assess the telomerase activity by performing polyacrylamide gel (12.5%) electrophoresis.

HFF + hTERT = test: Cell growth assay (viable cell count, trypan blue exclusion); type: cell-based, human; conditions: pre-treated with IMT 2 μM 3 days, then 6-thio-dG 3 μM 3 days
[1] = system: CD138-negative Multiple Myeloma Cancer Stem Cells; conditions: cells from bone marrow aspirates of patients with multiple myeloma; cited from earlier work
[2] = children with recurrent CNS malignancies; thrombocytopenia that led to bleeding; cited from earlier work
[3] = system: CD138-positive and CD138-negative cancer stem cells; conditions: by five weeks; cited from earlier work

Row | Molecule | effect on 6-thio-dG-induced TIFs (HFF+hTERT cells) | effect on 6-thio-dG-induced TIF formation (HFF+hTERT cells; IMT 2 μM pre-treatment, then 6-thio-dG 3 μM 3 days) | genomic DNA damage (γH2AX foci) in cells treated with 6-thio-dG (HFF+hTERT cells; IMT 2 μM with 6-thio-dG 3 μM 3 days) | telomerase activity (TRAP assay) (telomerase) | inhibition of cell growth by 6-thio-dG in the combination treatment (HFF + hTERT) | in vitro clonogenic growth [1] | tolerability and efficacy of regimen [2] | colony forming potential [3]
1 | O=c1cc(-c2cccc3c2Sc2ccccc2S3)oc(N2CCOCC2)c1 [ATM inhibitor, reference compound] | reduction in the number of cells with TIFs | – | – | – | – | – | – | –
2 | imetelstat | – | inhibited 6-thio-dG-induced TIF formation | reduced the genomic DNA damage | inhibition of telomerase activity | markedly reduced | inhibited the in vitro clonogenic growth | intolerable and ineffective | eliminated the colony forming potential
3 | CNCc1ccc(-c2cc(-c3nc(-c4ccc(S(=O)(=O)C(C)C)cc4)cnc3N)on2)cc1 [ATR inhibitor, reference compound] | reduction in the number of cells with TIFs | – | – | – | – | – | – | –
